From ChEMBL document CHEMBL1201862, “PubChem BioAssay data set” (2004)
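Cultured in 96-well plates, cells were exposed to test compound for 48 hours across five concentrations. Abbreviation: GI50, concentration required for 50% inhibition of growth.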 The source made the active and inactive calls. Rule as the data show it: active = GI50 up to about 1.1 µM and inactive = higher.

What was measured:
Experiment in all cases: inhibition of tumour cell growth, NCI panel, 48 h
[1] = system: PC-3
[2] = system: SF-539
[3] = system: SNB-19
[4] = system: KM12
[5] = system: ACHN
[6] = system: SF-295
[7] = system: 786-0
[8] = system: HL-60
[9] = system: SK-OV-3
[10] = system: HOP-62
[11] = system: Malme-3M
[12] = system: SNB-75
[13] = system: MOLT-4
[14] = system: SK-MEL-2
[15] = system: HT-29
[16] = system: HOP-92
[17] = system: SN12C
[18] = system: A549
[19] = system: HCT-116
[20] = system: IGROV-1
[21] = system: MDA-MB-231
[22] = system: NCI-H522
[23] = system: OVCAR-4
[24] = system: CAKI-1
[25] = system: NCI-H226
[26] = system: OVCAR-3
[27] = system: NCI-H23
[28] = system: SR
[29] = system: CCRF-CEM
[30] = system: OVCAR-5
[31] = system: TK-10
[32] = system: SW-620
[33] = system: RXF 393
[34] = system: SF-268
[35] = system: HCC 2998
[36] = system: NCI/ADR-RES
[37] = system: COLO 205
[38] = system: SK-MEL-28
[39] = system: MCF7
[40] = system: UACC-62
[41] = system: UACC-257
[42] = system: DU-145
[43] = system: T47D
[44] = system: U-251
[45] = system: EKVX
[46] = system: BT-549
[47] = system: OVCAR-8
[48] = system: K562
[49] = system: MDA-MB-435
[50] = system: Hs-578T
[51] = system: UO-31
[52] = system: HCT-15
[53] = system: NCI-H460
[54] = system: M14
[55] = system: SK-MEL-5
[56] = system: A498
[57] = system: LOX IMVI
[58] = system: RPMI-8226
[59] = system: MDA-N

Measured: GI50

CC(C)(C)c1cc(C(=O)/C=C/C=C/c2ccccc2)cc(C(C)(C)C)c1O
inactive: [1] 14.7 µM | [2] 14.5 µM | [3] 22.3 µM | [4] > 28.2 µM | [5] 29.2 µM | [6] 27.2 µM | [7] 17.1 µM | [8] 1.55 µM | [9] 31.8 µM | [10] 41.2 µM | [11] 47.9 µM | [12] 14.7 µM | [13] 12.8 µM | [14] 11.7 µM | [15] 22.9 µM | [16] 42.2 µM | [17] 27.4 µM | [18] 17.8 µM | [19] 18.2 µM | [20] 33.3 µM | [21] 19.4 µM | [22] 10.3 µM | [23] > 51.5 µM | [24] 29 µM | [25] 24.3 µM | [26] 27.4 µM | [27] 27.2 µM | [28] 3.24 µM | [29] 3.15 µM | [30] 36.7 µM | [31] 19.5 µM | [32] 11.5 µM | [33] 2.94 µM | [34] 25.2 µM | [35] 14 µM | [36] 8.73 µM | [37] 16.6 µM | [38] 30.5 µM | [39] 8.3 µM | [40] 18.1 µM | [41] 6.53 µM | [42] 29.4 µM | [43] 28.9 µM | [44] 14.2 µM | [45] 25.4 µM | [46] 18.5 µM | [47] 19.5 µM | [48] 7.31 µM | [49] 11.2 µM | [50] 25.7 µM | [51] 17.6 µM | [53] 15.4 µM | [54] 17.2 µM | [55] 11.3 µM | [56] 20.6 µM | [57] 19.8 µM | [58] 6.97 µM
15.9 µM: [52]

C/C(CC(O)(C(F)(F)F)C(F)(F)F)=N\NC(N)=O
> 10 µM: [52]
inactive: [1] > 10 µM | [2] > 10 µM | [3] > 10 µM | [4] > 10 µM | [5] > 10 µM | [6] > 10 µM | [7] > 10 µM | [8] > 10 µM | [9] > 10 µM | [10] > 10 µM | [11] > 10 µM | [12] > 10 µM | [13] > 10 µM | [14] > 10 µM | [15] > 10 µM | [16] > 10 µM | [17] > 10 µM | [18] > 10 µM | [19] > 10 µM | [20] > 10 µM | [21] > 10 µM | [22] > 10 µM | [23] > 10 µM | [24] > 10 µM | [25] > 10 µM | [26] > 10 µM | [27] > 10 µM | [28] > 10 µM | [29] > 10 µM | [31] > 10 µM | [59] > 10 µM | [32] > 10 µM | [33] > 10 µM | [34] > 10 µM | [35] > 10 µM | [36] > 10 µM | [37] > 10 µM | [38] > 10 µM | [39] > 10 µM | [40] > 10 µM | [41] > 10 µM | [42] > 10 µM | [43] > 10 µM | [44] > 10 µM | [45] > 10 µM | [47] > 10 µM | [48] > 10 µM | [49] > 10 µM | [50] > 10 µM | [51] > 10 µM | [53] > 10 µM | [54] > 10 µM | [55] > 10 µM | [56] > 10 µM | [57] > 10 µM | [58] > 10 µM
